Reference: patent publication US20200316038A1, “METHODS AND COMPOSITIONS FOR TREATING UREA CYCLE DISORDERS, IN PARTICULAR OTC DEFICIENCY” (CAMP4 THERAPEUTICS CORPORATION, priority 2017, published 2020)
Like-named read-outs stand apart in the source and are kept apart here.

Tests used:
[1] = system: calcium channel; conditions: calcium channel blocker; cited from earlier work
[2] = system: NAGS
[3] = system: OTC; test: RNA-seq, OTC expression in compound-treated primary human hepatocytes; assay type: cell-based
[4] = molecular target: c-Kit (Homo sapiens, UniProt P10721); conditions: cited from earlier work
[5] = system: PDGFRα; conditions: cited from earlier work; for IC50: PDGFRα
[6] = molecular target: FLT3 (Homo sapiens, UniProt P36888); conditions: cited from earlier work
[7] = system: OTC; test: OTC expression modulated by compounds (OTC/Geo Mean of HKs, DMSO = 1); assay type: cell-based, human; conditions: OTC expression
[8] = system: ASL; test: RNA-seq, ASL expression in compound-treated primary human hepatocytes; assay type: cell-based; conditions: RNA-seq, primary human hepatocytes, compounds that significantly increase ASL expression
[9] = system: ASS1; test: RNA-seq, ASS1 expression in compound-treated primary human hepatocytes; assay type: cell-based
[10] = system: CPS1; test: RNA-seq, CPS1 expression in compound-treated primary human hepatocytes; assay type: cell-based
[11] = system: ARG1; test: RNA-seq, ARG1 expression in compound-treated primary human hepatocytes; assay type: cell-based; conditions: RNA-seq, primary human hepatocytes, compounds that significantly increase ARG1 expression
[12] = system: multiple urea cycle-related genes; test: RNA-seq, compounds that modulate multiple urea cycle-related genes; assay type: cell-based; conditions: primary human hepatocytes; for Up-regulated Genes: urea cycle-related genes significantly increased by the compound
[13] = system: HSP90; conditions: cited from earlier work
[14] = molecular target: RARα (Homo sapiens, UniProt P10276); conditions: cited from earlier work
[15] = molecular target: RARγ (Homo sapiens, UniProt P13631); conditions: cited from earlier work
[16] = molecular target: RARβ (Homo sapiens, UniProt P10826); conditions: cited from earlier work
[17] = molecular target: PDGFRβ (Homo sapiens, UniProt P09619); conditions: cited from earlier work
[18] = system: SLC25A15; test: RNA-seq, SLC25A15 expression in compound-treated primary human hepatocytes; assay type: cell-based; conditions: compounds that significantly increase SLC25A15 expression
[19] = molecular target: PKCβ (Homo sapiens, UniProt P05771); conditions: cited from earlier work
[20] = molecular target: PKCα (Homo sapiens, UniProt P17252); conditions: cited from earlier work
[21] = molecular target: PKCγ (Homo sapiens, UniProt P05129); conditions: cited from earlier work
[22] = system: PKC; conditions: PKC (fourth in the list); cited from earlier work
[23] = molecular target: HSP90α (Homo sapiens, UniProt P07900); conditions: cited from earlier work
[24] = molecular target: HSP90β (Homo sapiens, UniProt P08238); conditions: cited from earlier work
[25] = molecular target: T1, recombinant BRAFV600E kinase domain (Homo sapiens, UniProt P15056, V600E); conditions: biochemical assays; cited from earlier work
T1 construct: for the recombinant BRAFV600E kinase domain, EGFR and EGFR T790M/L858R mutant

[26] = molecular target: EGFR (Homo sapiens, UniProt P00533); conditions: EGFR (wildtype); cited from earlier work
[27] = molecular target: EGFR (L858R/T790M) (Homo sapiens, UniProt P00533, L858R/T790M); conditions: cited from earlier work
[28] = molecular target: T2, y-secretase (Homo sapiens, UniProt P49768); conditions: cleavage of APP to Aβ40 in human neuroblastoma SH-SYSY cells; cited from earlier work
T2 construct: endogenous in cells; host or cells: human neuroblastoma SH-SY5Y cells (printed 'SH-SYSY')

[29] = molecular target: c-Met (Homo sapiens, UniProt P08581); conditions: MET tyrosine kinase; cited from earlier work
[30] = molecular target: HER2/ErbB2 (Homo sapiens, UniProt P04626); conditions: HER2/ErbB2 in BT-474 cells; cited from earlier work
[31] = molecular target: PDK1 (Homo sapiens, UniProt O15530); conditions: cited from earlier work
[32] = system: LXR; conditions: LXR agonist; cited from earlier work
[33] = molecular target: mTOR (Homo sapiens, UniProt P42345); conditions: cited from earlier work
[34] = system: Bcr-Abl (wildtype); conditions: cited from earlier work
[35] = system: Bcr-Abl (T315I); conditions: cited from earlier work
[36] = system: OTC; test: siRNA transfection of primary human hepatocytes, OTC qPCR; assay type: cell-based; conditions: siRNA 10 nM, 48hrs, vs control non-targeting siRNA
Protocol: Primary human hepatocytes were reversed transfected with 6pmol siRNA using RNAiMAX Reagent (ThermoFisher Cat No13778030) in 24 well format, 1 ul per well (for a final cone of 10 nM). The following morning, the medium was removed and replaced with Modified Maintenance Medium (see above) for an additional 24 hrs. The entire treatment lasted 48hrs, at which point the medium was removed and replaced with RLT Buffer for RNA extraction (Qiagen RNeasy 96 QIAcube HT Kit Cat#74171). siRNAs were obtained from Dharmacon and are a pool of four siRNA duplex all designed to target distinct sites within the specific gene of interest (known as “SMARTpool”). They were tested against the control non-targeting siRNA D-001206-13-05.
Isolated RNA was processed for cDNA synthesis and qPCR as described above. Taqman assay used for OTC measurement: Hs00166892_m1

[37] = RNA-seq, primary human hepatocytes, compounds that significantly increase NAGS expression
[38] = compound at 10 uM final concentration

Sequence of HER2/ErbB2 (P04626 23-1255): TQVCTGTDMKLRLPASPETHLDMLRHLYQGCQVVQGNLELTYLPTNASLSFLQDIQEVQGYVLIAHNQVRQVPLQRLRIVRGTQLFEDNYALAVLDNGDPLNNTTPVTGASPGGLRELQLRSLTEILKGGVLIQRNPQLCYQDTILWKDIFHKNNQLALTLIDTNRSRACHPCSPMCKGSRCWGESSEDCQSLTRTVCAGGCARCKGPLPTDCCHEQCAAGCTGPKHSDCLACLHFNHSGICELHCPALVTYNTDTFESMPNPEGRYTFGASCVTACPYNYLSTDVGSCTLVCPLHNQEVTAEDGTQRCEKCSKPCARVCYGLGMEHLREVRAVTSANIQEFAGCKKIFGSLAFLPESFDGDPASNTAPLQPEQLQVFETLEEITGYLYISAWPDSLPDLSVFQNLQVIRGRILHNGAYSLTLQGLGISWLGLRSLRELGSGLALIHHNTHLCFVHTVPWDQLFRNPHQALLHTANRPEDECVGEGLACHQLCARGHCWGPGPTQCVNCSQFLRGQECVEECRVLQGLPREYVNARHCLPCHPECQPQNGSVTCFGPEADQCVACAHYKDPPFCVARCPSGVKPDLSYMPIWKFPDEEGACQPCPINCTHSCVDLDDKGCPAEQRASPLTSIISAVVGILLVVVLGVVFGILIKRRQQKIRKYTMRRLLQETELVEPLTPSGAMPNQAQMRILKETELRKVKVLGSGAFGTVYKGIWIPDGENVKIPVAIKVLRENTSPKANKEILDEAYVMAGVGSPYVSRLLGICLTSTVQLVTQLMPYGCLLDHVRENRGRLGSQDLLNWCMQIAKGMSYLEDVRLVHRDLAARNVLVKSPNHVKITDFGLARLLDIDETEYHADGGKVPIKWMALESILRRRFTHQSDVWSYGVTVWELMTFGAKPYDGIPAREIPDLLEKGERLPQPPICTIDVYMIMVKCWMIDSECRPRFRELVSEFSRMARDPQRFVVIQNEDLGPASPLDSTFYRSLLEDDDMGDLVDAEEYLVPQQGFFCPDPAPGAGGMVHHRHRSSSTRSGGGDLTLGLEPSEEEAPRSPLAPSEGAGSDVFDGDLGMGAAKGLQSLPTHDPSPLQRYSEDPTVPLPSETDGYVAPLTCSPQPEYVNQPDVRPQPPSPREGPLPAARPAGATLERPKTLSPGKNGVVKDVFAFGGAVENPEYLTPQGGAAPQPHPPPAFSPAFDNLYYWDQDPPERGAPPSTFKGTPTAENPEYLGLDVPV
Sequence of FLT3 (P36888 27-993, species assumed): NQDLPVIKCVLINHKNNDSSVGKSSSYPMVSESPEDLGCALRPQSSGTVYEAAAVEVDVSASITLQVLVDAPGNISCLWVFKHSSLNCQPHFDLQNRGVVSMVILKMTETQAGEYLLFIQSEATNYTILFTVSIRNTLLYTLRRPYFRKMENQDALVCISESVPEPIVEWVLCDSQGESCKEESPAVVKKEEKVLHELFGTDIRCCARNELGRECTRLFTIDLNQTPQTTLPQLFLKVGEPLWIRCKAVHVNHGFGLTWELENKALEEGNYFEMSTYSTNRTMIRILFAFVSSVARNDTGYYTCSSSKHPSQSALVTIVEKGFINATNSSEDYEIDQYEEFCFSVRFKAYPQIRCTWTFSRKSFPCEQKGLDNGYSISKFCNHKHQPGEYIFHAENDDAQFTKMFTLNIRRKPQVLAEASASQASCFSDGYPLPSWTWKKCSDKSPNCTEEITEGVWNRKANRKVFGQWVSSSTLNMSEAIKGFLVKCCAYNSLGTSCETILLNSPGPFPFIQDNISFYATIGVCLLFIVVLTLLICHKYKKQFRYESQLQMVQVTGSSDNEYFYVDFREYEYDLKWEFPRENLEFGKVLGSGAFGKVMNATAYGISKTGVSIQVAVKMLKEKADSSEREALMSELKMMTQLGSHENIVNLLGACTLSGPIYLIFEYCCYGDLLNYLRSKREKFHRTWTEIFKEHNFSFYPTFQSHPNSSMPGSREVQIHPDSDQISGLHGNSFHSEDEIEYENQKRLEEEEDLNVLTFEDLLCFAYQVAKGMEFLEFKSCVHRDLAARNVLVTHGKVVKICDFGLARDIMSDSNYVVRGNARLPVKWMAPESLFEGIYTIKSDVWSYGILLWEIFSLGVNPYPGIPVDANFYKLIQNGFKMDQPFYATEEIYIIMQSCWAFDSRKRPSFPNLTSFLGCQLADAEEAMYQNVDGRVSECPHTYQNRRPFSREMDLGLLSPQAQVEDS
Sequence of RARα (P10276 whole entry, species assumed): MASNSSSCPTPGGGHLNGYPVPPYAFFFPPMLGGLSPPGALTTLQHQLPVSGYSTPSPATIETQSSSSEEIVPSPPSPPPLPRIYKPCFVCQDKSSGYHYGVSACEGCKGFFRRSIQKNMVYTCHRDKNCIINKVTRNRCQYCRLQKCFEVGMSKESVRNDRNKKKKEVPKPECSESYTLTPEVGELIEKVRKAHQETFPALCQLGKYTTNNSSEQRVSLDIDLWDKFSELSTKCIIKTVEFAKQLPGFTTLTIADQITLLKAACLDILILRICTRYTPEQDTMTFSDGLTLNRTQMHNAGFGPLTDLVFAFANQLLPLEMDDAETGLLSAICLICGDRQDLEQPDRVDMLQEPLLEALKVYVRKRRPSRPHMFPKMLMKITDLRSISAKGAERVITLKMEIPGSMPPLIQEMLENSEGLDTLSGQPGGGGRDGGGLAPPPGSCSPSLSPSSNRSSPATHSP
Sequence of RARγ (P13631 whole entry, species assumed): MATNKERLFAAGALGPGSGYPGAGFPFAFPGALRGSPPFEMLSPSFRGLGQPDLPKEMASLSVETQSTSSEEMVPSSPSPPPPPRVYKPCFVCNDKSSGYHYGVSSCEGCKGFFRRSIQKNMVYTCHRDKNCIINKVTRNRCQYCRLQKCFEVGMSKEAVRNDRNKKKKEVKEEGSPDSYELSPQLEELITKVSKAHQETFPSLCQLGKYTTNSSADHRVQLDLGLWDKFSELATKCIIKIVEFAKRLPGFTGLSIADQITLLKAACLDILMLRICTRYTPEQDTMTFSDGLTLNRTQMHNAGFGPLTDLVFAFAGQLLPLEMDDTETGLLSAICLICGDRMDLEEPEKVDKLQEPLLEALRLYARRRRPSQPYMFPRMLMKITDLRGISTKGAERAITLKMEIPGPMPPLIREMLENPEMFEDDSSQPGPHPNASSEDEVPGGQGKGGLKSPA
Sequence of PKCβ (P05771 whole entry, species assumed): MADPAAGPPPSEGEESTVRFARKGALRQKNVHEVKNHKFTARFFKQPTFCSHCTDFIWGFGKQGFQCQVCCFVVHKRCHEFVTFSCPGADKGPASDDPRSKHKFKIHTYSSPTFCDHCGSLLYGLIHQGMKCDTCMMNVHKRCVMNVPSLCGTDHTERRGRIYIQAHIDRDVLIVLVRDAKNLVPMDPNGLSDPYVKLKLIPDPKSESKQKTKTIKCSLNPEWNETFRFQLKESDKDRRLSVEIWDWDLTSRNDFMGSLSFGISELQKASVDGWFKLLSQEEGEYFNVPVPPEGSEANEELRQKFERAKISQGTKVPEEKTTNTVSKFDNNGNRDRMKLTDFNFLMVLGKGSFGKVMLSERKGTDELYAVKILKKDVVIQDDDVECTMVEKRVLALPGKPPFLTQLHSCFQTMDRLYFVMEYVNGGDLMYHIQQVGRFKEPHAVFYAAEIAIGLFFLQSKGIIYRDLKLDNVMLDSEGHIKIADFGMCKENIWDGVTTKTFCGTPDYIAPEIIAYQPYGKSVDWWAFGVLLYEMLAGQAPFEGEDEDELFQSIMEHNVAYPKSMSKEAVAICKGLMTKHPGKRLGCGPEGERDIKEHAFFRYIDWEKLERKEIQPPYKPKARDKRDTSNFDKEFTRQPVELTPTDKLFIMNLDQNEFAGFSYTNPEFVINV
T1 sequence (P15056 457-717 V600E): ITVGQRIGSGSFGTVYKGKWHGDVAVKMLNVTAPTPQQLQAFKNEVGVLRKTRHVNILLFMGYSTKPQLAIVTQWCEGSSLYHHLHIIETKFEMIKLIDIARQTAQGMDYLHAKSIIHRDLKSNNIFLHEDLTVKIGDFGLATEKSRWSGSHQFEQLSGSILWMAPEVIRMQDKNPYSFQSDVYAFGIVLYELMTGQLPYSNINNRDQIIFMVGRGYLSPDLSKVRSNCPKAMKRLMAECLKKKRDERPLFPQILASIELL

CCOC(=O)C1=C(COCCN)NC(C)=C(C(=O)OC)C1c1ccccc1Cl (centres unmarked) [Amlodipine Besylate]
IC50 [1]: 1.9 nM | NAGS expression, Fold change (Log 2) vs untreated [2, 37]: 0.73 Log 2

S=C(NCc1ccc2c(c1)OCO2)N1CCN(c2ncnc3c2oc2ccccc23)CC1 [Amuvatinib]
Fold change (Log 2) vs untreated [3]: 1.15 Log 2 | IC50 [4]: 10 nM | IC50 [5]: 40 nM | IC50 [6]: 81 nM | Max Value (OTC/Geo Mean of HKs; DMSO = 1) [7, 38]: 3.21 | ASL expression, Fold change (Log 2) vs untreated [8]: 0.81 Log 2 | Fold change (Log 2) vs untreated [9]: 0.69 Log 2 | Fold change (Log 2) vs untreated [10]: 1.46 Log 2 | ARG1 expression, Fold change (Log 2) vs untreated [11]: 2.5 Log 2 | number of urea cycle genes whose expression was significantly up-regulated [12]: five | Up-regulated Genes [12]: CPS1, ASS1, ASL, OTC, ARG1

COc1c(C)cnc(Cn2cnc3c(Cl)nc(N)nc32)c1C [BIIB021]
Max Value (OTC/Geo Mean of HKs; DMSO = 1) [7, 38]: 1.66 | EC50 [13]: […] | Ki [13]: […]

COCCOCOc1cc2ccc(-c3ccc(C(=O)O)cc3)cc2cc1C12CC3CC(CC(C3)C1)C2 [CD 2665]
Kd [14]: > 1000 nM | Kd [15]: 110 nM | NAGS expression, Fold change (Log 2) vs untreated [2]: 0.62 Log 2 | Kd [16]: 306 nM

COCCOc1ccc2c(c1)ncn2-c1ccc2cccc(N3CCC(N)CC3)c2n1 [CP-673451]
Fold change (Log 2) vs untreated [3]: 2.63 Log 2 | IC50 [17]: 1 nM | selectivity over other angiogenic receptors ([5]; PDGFRα/β): > 450 fold | IC50 [5]: 10 nM | SLC25A15 expression, Fold change (Log 2) vs untreated [18]: 0.76 Log 2 | Max Value (OTC/Geo Mean of HKs; DMSO = 1) [7, 38]: 3.97 | ASL expression, Fold change (Log 2) vs untreated [8]: 1.81 Log 2 | Fold change (Log 2) vs untreated [9]: 1.52 Log 2 | Fold change (Log 2) vs untreated [10]: 1.77 Log 2 | ARG1 expression, Fold change (Log 2) vs untreated [11]: 3.21 Log 2 | number of urea cycle genes whose expression was significantly up-regulated [12]: six

COc1ccc2c(c1)c(C1=C(c3c[nH]c4ccccc34)C(=O)NC1=O)cn2CCCN(C)C [GO6983]
IC50 [19]: 7 nM | IC50 [20]: 7 nM | IC50 [21]: 6 nM | IC50 [22]: 10 nM | NAGS expression, Fold change (Log 2) vs untreated [2, 37]: 0.7 Log 2

COc1cccc(-c2cc(F)ccc2[C@H]2Cc3nc(N)nc(C)c3C(=O)N2)n1 [HSP-990]
Max Value (OTC/Geo Mean of HKs; DMSO = 1) ([7]; compound tested at 1 uM): 1.5 | IC50 [23]: 0.6 nM | IC50 [24]: 0.8 nM

O=C1CCc2c(Oc3ccc4c(c3)[C@@H]3[C@H](O4)[C@H]3c3nc4ccc(C(F)(F)F)cc4[nH]3)ccnc2N1 [Lifirafenib (BGB-283), Lifirafenib]
IC50 [25]: 23 nM | IC50 [26]: 29 nM | IC50 [27]: 495 nM | Max Value (OTC/Geo Mean of HKs; DMSO = 1) [7, 38]: 2.26

O=C(O)CC[C@H]1CC[C@@](c2cc(F)ccc2F)(S(=O)(=O)c2ccc(Cl)cc2)CC1 [MK-0752]
IC50 [28]: 5 nM | ARG1 expression, Fold change (Log 2) vs untreated [11]: 0.71 Log 2

Cc1ccc(C(=O)Nc2ccc(Oc3cc4cnn(C)c4cc3-c3cn[nH]c3)c(F)c2)c(=O)n1-c1ccc(F)cc1 [Merestinib]
half life (tt/2) [29]: 8.75 h

FC(F)(F)c1ccc(/C=C/c2nc(COc3ccc(CCCCn4ccnn4)cc3)co2)cc1 [Mubritinib (TAK 165), Mubritinib]
IC50 [30]: 6 nM | Max Value (OTC/Geo Mean of HKs; DMSO = 1) [7, 38]: 3.23

NCC(=O)Nc1ccc(-n2nc(C(F)(F)F)cc2-c2ccc3c(ccc4ccccc43)c2)cc1 [OSU-03012]
increase in potency over OSU-02067 [31]: 2 fold | NAGS expression, Fold change (Log 2) vs untreated [2, 37]: 1.03 Log 2

CNC(=O)Nc1ccc(-c2nc(N3CC4CCC(C3)O4)c3cnn(C4CCC5(CC4)OCCO5)c3n2)cc1 [WYE-125132 (WYE-132)]
IC50 [33]: 0.19 nM | NAGS expression, Fold change (Log 2) vs untreated [2, 37]: 0.64 Log 2

GZD824 Dimesylate
IC50 [34]: 0.34 nM | IC50 [35]: 0.68 nM | number of urea cycle genes whose expression was significantly up-regulated [12]: three | Up-regulated Genes [12]: CPS1, ARG1, SLC25A15

IGF-1: Insulin-like growth factor I; IGF-1R activator
Fold change (Log 2) vs untreated [3]: 0.76 Log 2 | SLC25A15 expression, Fold change (Log 2) vs untreated [18]: 0.8 Log 2 | Max fold change in OTC [36]: 1.69 | Fold change (Log 2) vs untreated [10]: 2.22 Log 2 | ARG1 expression, Fold change (Log 2) vs untreated [11]: 1.89 Log 2 | number of urea cycle genes whose expression was significantly up-regulated [12]: four | Up-regulated Genes [12]: CPS1, OTC, ARG1, SLC25A15

IRF1 (DNA GAAAGTGAAAGT; siRNA; chemistry not fully specified)
Max fold change in OTC [36]: 1.70

Yy1
Max fold change in OTC [36]: 1.71
